Experimental data taken from ChEMBL document CHEMBL4184185, “Dihydrobenzisoxazole-4-one compounds are novel selective inhibitors of aldosterone synthase (CYP11B2) with in vivo activity” (Bioorg Med Chem Lett, 2018).
The source made the active and inactive calls. No cut-off for these calls is given here.

Tests used:
[1] = Inhibition of cynomolgus monkey adrenal mitochondrial CYP11B2 using corticosterone as substrate after 60 mins in presence of NADPH by mass spectrometric analysis
[2] = Inhibition of cynomolgus monkey adrenal mitochondrial CYP11B1 using 11-deoxycortisol as substrate after 90 mins in presence of NADPH by mass spectrometric analysis
Macaca fascicularis [3] = species: Macaca fascicularis; assay: Selectivity index, ratio of IC50 for cynomolgus monkey adrenal mitochondrial CYP11B1 to IC50 for cynomolgus monkey adrenal mitochondrial CYP11B2
[4] = Clearance in human liver microsomes relative to hepatic blood flow; format: ADME, microsome; settings: read-out: CLH
[5] = target: T1, Cytochrome P450 11B2, mitochondrial (Homo sapiens, UniProt P19099); assay: Inhibition of recombinant human CYP11B2 expressed in Chinese hamster V79MZ cells assessed as reduction in aldosterone production by mass spectrometric method; format: cell-based
T1 sequence (P19099 whole entry): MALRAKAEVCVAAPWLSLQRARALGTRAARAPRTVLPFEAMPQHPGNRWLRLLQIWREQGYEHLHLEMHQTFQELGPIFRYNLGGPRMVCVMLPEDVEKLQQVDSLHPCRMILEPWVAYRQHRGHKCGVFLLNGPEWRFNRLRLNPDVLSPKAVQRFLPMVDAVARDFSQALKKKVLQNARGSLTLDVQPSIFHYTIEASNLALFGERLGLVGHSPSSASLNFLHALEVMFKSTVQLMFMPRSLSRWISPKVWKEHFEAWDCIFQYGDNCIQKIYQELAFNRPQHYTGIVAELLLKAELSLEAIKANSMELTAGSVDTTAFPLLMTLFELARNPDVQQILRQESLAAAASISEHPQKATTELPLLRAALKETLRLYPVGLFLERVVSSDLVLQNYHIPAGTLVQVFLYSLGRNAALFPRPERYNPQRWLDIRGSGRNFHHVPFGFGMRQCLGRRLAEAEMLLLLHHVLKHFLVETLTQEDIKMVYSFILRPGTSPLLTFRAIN

[6] = target: T2, Steroid 17-alpha-hydroxylase/17,20 lyase (Homo sapiens, UniProt P05093); assay: Inhibition of CYP17A1 (unknown origin) at 20 uM; format: ADME
T2 sequence (P05093 whole entry): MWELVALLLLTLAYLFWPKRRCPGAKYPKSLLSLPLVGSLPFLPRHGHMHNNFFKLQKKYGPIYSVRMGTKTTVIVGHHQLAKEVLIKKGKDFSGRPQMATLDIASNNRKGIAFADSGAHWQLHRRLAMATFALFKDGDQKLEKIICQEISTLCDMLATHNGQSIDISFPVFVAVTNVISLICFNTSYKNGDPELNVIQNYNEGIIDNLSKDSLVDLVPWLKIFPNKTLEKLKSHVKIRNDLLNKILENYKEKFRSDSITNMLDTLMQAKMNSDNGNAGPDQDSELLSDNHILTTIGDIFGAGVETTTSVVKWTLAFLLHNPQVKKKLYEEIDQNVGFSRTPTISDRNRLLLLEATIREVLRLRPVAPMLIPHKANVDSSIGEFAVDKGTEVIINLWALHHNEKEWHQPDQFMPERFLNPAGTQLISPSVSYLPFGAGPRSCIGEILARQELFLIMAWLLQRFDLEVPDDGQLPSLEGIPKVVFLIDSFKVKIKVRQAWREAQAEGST

Cytochrome P450 3A4 = Cytochrome P450 3A4 (Homo sapiens, UniProt P08684); assay: Inhibition of CYP3A4 (unknown origin) at 30 uM; format: ADME
Aromatase [7] = target: T3, Aromatase (Homo sapiens, UniProt P11511); assay: Inhibition of CYP19A1 (unknown origin) at 20 uM
T3 sequence (P11511 whole entry): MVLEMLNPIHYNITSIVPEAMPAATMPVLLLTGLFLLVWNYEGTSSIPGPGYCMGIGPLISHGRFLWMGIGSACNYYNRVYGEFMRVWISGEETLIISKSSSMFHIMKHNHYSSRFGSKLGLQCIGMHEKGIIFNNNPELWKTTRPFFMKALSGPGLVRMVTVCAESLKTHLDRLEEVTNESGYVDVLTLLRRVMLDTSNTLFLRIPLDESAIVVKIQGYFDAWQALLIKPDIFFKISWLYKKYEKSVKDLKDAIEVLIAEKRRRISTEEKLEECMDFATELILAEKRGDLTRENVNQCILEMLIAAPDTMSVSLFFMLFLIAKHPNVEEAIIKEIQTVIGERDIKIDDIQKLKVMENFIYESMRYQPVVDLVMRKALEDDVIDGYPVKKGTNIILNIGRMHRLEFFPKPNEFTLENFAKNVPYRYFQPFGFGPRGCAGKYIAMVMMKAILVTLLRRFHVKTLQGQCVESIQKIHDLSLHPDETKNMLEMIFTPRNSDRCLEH

[8] = target: T2, Steroid 17-alpha-hydroxylase/17,20 lyase; assay: Inhibition of CYP17A1 (unknown origin); format: ADME
Aromatase [9] = target: T3, Aromatase; assay: Inhibition of CYP19A1 (unknown origin)
Cytochrome P450 2C9 = Cytochrome P450 2C9 (Homo sapiens, UniProt P11712); assay: Inhibition of CYP2C9 (unknown origin) at 30 uM; format: ADME
Cytochrome P450 2D6 = Cytochrome P450 2D6 (Homo sapiens, UniProt P10635); assay: Inhibition of CYP2D6 (unknown origin) at 30 uM; format: ADME
Rattus norvegicus = assay: Clearance in iv dosed Wistar Han rat relative to hepatic blood flow; format: ADME, organism-based; settings: in vivo
[10] = Clearance in cynomolgus monkey hepatocytes relative to hepatic blood flow; format: ADME, cell-based, Macaca fascicularis, Hepatocyte; settings: read-out: CLH
[11] = Clearance in human hepatocytes relative to hepatic blood flow; format: ADME, cell-based, Hepatocyte; settings: read-out: CLH
Cynomolgus monkey = assay: Clearance in iv dosed cynomolgus monkey relative to hepatic blood flow; format: ADME, organism-based, Macaca fascicularis; settings: in vivo
[12] = Drug metabolism in human hepatocytes assessed as parent compound remaining at 10 uM after 30 mins by LC-MS/MS analysis; format: ADME, cell-based, Hepatocyte; settings: read-out: Stability
[13] = Oral bioavailability in Wistar Han rat; format: ADME, organism-based; settings: in vivo
[14] = Clearance in Wistar Han rat hepatocytes relative to hepatic blood flow; format: ADME, cell-based, Hepatocyte; settings: read-out: CLH
Macaca fascicularis [15] = species: Macaca fascicularis; assay: Inhibition of cynomolgus monkey adrenal mitochondrial CYP11B2 at 1 uM using corticosterone as substrate after 60 mins in presence of NADPH by mass spectrometric analysis
[16] = target: T1, Cytochrome P450 11B2, mitochondrial; assay: Inhibition of recombinant human CYP11B2 expressed in Chinese hamster V79MZ cells assessed as reduction in aldosterone production at 1 uM by mass spectrometric method; format: cell-based
[17] = target: T1, Cytochrome P450 11B2, mitochondrial; assay: Inhibition of recombinant human CYP11B2 expressed in Chinese hamster V79MZ cells assessed as reduction in aldosterone production at 20 uM by mass spectrometric method; format: cell-based
[18] = Clearance in Beagle dog hepatocytes relative to hepatic blood flow; format: ADME, cell-based, Canis lupus familiaris, Hepatocyte; settings: read-out: CLH
Canis familiaris = assay: Clearance in iv dosed Beagle dog relative to hepatic blood flow; format: ADME, organism-based, Canis lupus familiaris; settings: in vivo
[19] = Oral bioavailability in Beagle dog; format: ADME, organism-based, Canis lupus familiaris; settings: in vivo

Chain of Cytochrome P450 2D6 (P10635 whole entry): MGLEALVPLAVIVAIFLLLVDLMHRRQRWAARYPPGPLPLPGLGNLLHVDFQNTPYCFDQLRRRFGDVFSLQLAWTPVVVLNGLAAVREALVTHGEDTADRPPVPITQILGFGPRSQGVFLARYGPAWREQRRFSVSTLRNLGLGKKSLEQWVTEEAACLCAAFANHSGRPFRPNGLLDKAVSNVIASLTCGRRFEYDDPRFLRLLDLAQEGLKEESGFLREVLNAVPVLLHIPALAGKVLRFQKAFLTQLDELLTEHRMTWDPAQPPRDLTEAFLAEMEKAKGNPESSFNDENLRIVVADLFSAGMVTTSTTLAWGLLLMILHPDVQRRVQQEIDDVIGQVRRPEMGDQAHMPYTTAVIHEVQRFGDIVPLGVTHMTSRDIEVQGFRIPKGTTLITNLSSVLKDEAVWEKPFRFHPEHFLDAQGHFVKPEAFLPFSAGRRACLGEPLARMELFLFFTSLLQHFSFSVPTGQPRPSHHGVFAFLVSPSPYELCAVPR
Chain of Cytochrome P450 2C9 (P11712 whole entry): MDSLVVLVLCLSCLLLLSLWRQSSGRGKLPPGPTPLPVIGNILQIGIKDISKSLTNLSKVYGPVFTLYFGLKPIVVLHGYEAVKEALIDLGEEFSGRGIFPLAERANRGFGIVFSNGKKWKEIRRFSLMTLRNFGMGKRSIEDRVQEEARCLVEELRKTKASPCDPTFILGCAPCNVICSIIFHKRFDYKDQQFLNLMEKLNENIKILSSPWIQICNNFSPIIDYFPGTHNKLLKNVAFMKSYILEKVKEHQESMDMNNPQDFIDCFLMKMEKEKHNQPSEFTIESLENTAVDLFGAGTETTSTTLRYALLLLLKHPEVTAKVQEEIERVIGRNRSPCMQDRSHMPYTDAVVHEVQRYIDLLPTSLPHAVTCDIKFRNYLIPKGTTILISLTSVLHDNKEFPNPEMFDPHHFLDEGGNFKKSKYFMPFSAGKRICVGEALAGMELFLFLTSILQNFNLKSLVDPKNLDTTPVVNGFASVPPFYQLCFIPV
Chain of Cytochrome P450 3A4 (P08684 whole entry): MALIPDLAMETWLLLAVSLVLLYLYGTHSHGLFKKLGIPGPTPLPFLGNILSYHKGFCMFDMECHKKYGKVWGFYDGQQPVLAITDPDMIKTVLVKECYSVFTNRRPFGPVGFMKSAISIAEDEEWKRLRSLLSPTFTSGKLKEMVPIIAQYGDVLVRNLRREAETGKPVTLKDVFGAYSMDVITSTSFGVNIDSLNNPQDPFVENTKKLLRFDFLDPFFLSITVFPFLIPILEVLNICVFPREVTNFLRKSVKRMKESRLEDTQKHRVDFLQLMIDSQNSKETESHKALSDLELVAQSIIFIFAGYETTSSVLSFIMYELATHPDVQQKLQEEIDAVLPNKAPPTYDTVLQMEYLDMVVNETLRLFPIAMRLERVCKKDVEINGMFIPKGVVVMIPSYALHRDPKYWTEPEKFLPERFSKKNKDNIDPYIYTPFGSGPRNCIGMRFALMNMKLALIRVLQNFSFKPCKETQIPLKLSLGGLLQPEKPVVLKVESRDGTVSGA

Structure (SMILES)	pIC50 [1]	pIC50 [2]	Ratio IC50 (Macaca fascicularis [3])	hepatic extraction ratio [4]	other results
CC1CC(=O)c2c(noc2Cc2ccccc2)C1 (centres undefined)	7.6	5.5	130	0.73	
CC1(C)CC(=O)c2c(noc2Cc2ccccc2)C1	7.1	5.1	100	0.64	inhibition (INH) [5]: Active; inhibition (INH) [6]: Not Active; inhibition (INH) (Cytochrome P450 3A4): Not Active; IC50 [1]: 0.079 µM; inhibition (INH) (Aromatase [7]): Not Active; IC50 [8]: > 31.6 µM; IC50 (Aromatase [9]): > 31.6 µM; inhibition (INH) (Cytochrome P450 2C9): Not Active; inhibition (INH) (Cytochrome P450 2D6): Not Active
CC1(C)CCc2c(noc2Cc2ccc(C#N)cc2)C1	6.8	5.5	17	0.37	
CC1(C)CC(=O)c2c(noc2Cc2ccc(C#N)cc2)C1	7.1	4.1	940	0.55	inhibition (INH) [5]: Active
CC1CC(=O)c2c(noc2Cc2ccc(C#N)cc2)C1 (centres undefined)	6.7	5.1	39	0.38	
CC1(C)CC(=O)c2c(noc2Cc2ccc(C(N)=O)cc2)C1	7	4.8	150	0.33	inhibition (INH) (Cytochrome P450 3A4): Not Active; CL (Rattus norvegicus): 62%; hepatic extraction ratio [10]: 0.22; inhibition (INH) (Aromatase [7]): Not Active; hepatic extraction ratio [11]: 0.33; CL (Cynomolgus monkey): 57%; IC50 (Aromatase [9]): > 20 µM; inhibition (INH) (Cytochrome P450 2C9): Not Active; remaining at 0.5 h, 10 µM [12]: 55%; bioavailability [13]: 8%; hepatic extraction ratio [14]: 0.6; inhibition (INH) (Cytochrome P450 2D6): Not Active
CC1(C)Cc2noc(Cc3ccc(F)cc3)c2C(O)C1 (centres undefined)					inhibition (Macaca fascicularis [15]): inactive
CC1(C)CC(=O)c2c(noc2-c2ccccc2)C1	< 6	4.3	< 53	0.85	IC50 [8]: > 31.6 µM
CC1(C)CC(=O)c2c(n[nH]c2Cc2ccc(C#N)cc2)C1	< 6				inhibition at 1 µM [16]: 54%
Clc1ccc(-c2ccn[nH]2)cc1Cl	5.3				inhibition (INH) [17]: Not Active
Clc1ccc(-c2ccno2)cc1Cl	< 4.7				inhibition (INH) [17]: Not Active
CC1(C)CC(=O)c2c(noc2Cc2ccc(S(C)(=O)=O)cc2)C1	7.1	5.4	42	< 0.24	hepatic extraction ratio [11]: 0.59; IC50 [8]: > 31.6 µM
CC1(C)CC(=O)c2c(noc2Cc2ccc(C(=O)N3CC[C@@H](O)C3)cc2)C1	7	5	160	< 0.24	hepatic extraction ratio [18]: < 0.3; CL (Canis familiaris): 35%; inhibition (INH) (Cytochrome P450 3A4): Not Active; CL (Rattus norvegicus): 31%; hepatic extraction ratio [10]: 0.28; inhibition (INH) (Aromatase [7]): Not Active; bioavailability [19]: 85%; hepatic extraction ratio [11]: < 0.24; CL (Cynomolgus monkey): 75%; IC50 (Aromatase [9]): > 20 µM; inhibition (INH) (Cytochrome P450 2C9): Not Active; remaining at 0.5 h, 10 µM [12]: 98%; bioavailability [13]: 11%; hepatic extraction ratio [14]: 0.52; inhibition (INH) (Cytochrome P450 2D6): Not Active
N#Cc1ccc(Cc2onc3c2C(=O)CC(C2CC2)C3)cc1 (centres undefined)	6.8	5.6	15	0.83	
CN1C(=O)CCc2cc(-c3cccnc3)ccc21	8.4	6	230		IC50 [8]: 0.316 µM; IC50 (Aromatase [9]): 0.1 µM
COc1ccc(Cc2onc3c2C(=O)CC(C)(C)C3)cc1	7.8	5.8	95	0.86	IC50 [8]: > 31.6 µM; IC50 (Aromatase [9]): > 31.6 µM
CC1(C)CC(=O)C(C(=O)Cc2ccc(F)cc2)=C(N)C1					inhibition (Macaca fascicularis [15]): inactive
N#Cc1ccc([C@H]2CCc3cncn32)c(F)c1 [OSILODROSTAT]	7.7	7.4			IC50 [8]: 3.98 µM
CN1CCN(C(=O)c2ccc(Cc3onc4c3C(=O)CC(C)(C)C4)cc2)CC1=O	6.8	5	64	< 0.24	inhibition (INH) (Cytochrome P450 3A4): Not Active; inhibition (INH) (Aromatase [7]): Not Active; hepatic extraction ratio [11]: 0.41; IC50 (Aromatase [9]): > 31.6 µM; inhibition (INH) (Cytochrome P450 2C9): Not Active; inhibition (INH) (Cytochrome P450 2D6): Not Active
O=C1CCCc2noc(Cc3ccccc3)c21	6.1	4.6	32	0.73	
CC1(C)CC(=O)c2c(ncn2Cc2ccccc2)C1	7				
Clc1ccc(-n2ccnc2)cc1Cl	7.2				inhibition (INH) [17]: Not Active
